What was measured:
[1] = target: T1, 5-hydroxytryptamine receptor 4 (Rattus norvegicus, UniProt Q62758); assay: In vitro relaxation of carbachol pre-contracted rat oesophageal TMM.; type: functional
[2] = target: T1, 5-hydroxytryptamine receptor 4; assay: Binding affinity at 5-hydroxytryptamine 4 receptor in rat striatum by [3H]GR-113808 displacement.; type: tissue-based
[3] = target: T2, Serotonin 3 (5-HT3) receptor (Rattus norvegicus, UniProt P35563+Q9JJ16); assay: Binding affinity at 5-hydroxytryptamine 3 receptor in rat entorhinal cortex by [3H]BRL-43694 displacement.; type: tissue-based
T2 sequence (P35563 whole entry): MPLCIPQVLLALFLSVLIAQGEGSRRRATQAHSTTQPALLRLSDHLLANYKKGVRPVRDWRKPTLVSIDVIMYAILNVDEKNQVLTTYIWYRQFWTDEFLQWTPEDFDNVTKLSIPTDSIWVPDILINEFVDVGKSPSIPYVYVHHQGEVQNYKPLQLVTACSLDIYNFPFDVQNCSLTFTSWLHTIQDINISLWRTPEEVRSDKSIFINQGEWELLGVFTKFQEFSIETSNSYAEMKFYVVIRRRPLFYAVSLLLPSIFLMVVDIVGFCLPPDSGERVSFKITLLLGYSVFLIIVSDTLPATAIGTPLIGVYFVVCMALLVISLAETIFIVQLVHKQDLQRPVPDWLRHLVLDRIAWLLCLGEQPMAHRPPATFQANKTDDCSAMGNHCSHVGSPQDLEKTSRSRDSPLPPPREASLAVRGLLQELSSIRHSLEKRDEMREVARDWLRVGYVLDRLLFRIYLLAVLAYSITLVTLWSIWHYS
T2 sequence (Q9JJ16 whole entry): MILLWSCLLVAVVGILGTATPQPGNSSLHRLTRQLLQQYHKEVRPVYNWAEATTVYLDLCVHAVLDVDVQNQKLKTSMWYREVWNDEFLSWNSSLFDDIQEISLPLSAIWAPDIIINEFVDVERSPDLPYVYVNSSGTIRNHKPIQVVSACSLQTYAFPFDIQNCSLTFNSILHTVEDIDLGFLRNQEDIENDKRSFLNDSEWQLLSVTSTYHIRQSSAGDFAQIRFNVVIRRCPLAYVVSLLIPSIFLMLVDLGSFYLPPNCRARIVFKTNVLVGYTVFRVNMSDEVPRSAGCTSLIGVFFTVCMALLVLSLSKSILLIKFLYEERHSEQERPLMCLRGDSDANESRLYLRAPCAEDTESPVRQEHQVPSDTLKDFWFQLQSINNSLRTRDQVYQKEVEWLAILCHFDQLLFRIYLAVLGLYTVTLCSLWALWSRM

[4] = target: Serotonin 3 (5-HT3) receptor (Homo sapiens) (UniProt P46098+A5X5Y0+O95264+Q70Z44+Q8WXA8); assay: In vitro 5-hydroxytryptamine 3 receptor activity in guinea pig ileum; type: tissue-based; conditions: Cavia porcellus, target entry is the homologue from another species
[5] = target: 5-hydroxytryptamine receptor 4 (Rattus norvegicus) (UniProt Q62758); assay: In vitro 5-hydroxytryptamine 4 receptor activity by using carbachol-precontracted esophageal tunica muscularis mucosae.
5-hydroxytryptamine receptor 4 (Rattus norvegicus), sequence (Q62758 whole entry): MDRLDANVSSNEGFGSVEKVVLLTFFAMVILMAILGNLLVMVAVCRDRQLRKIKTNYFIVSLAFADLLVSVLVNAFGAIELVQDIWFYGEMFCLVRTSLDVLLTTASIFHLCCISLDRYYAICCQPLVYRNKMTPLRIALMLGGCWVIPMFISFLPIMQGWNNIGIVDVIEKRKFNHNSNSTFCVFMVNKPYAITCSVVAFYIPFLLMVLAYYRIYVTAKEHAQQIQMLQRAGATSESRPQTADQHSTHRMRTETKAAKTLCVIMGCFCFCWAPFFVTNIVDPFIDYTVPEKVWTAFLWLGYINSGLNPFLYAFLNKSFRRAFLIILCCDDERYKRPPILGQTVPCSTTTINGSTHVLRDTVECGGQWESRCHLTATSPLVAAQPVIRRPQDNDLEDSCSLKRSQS

[6] = target: 5-hydroxytryptamine receptor 4 (Rattus norvegicus) (UniProt Q62758); assay: In vitro 5-hydroxytryptamine 4 receptor activity by using carbachol-precontracted esophageal tunica muscularis mucosae; No activity up to 104M concentration

T1 sequence (Q62758 whole entry): as above

Row | Structure (SMILES) | EC50 [1] | Ki [2] | Ki [3] | Kb [4] | Kb [5] | Kb [6]
1 | Nc1c(Cl)cc(C(=O)NCCN2CCCCC2)c2c1CCO2 | 0.0354 µM | 0.041 µM | 0.38 µM |  |  | 
2 | O=C(N[C@@H]1CN2CCC1CC2)c1cccc2c1OCC2 | > 10 µM | > 1 µM | 0.0014 µM | 0.0407 µM | > 1 µM | 
3 | O=C(N[C@H]1CN2CCC1CC2)c1cccc2c1OCC2 | > 1 µM | > 10 µM | 0.014 µM |  | > 1 µM | 
4 | O=C(N[C@@H]1CN2CCC1CC2)c1cc(Cl)cc2c1OCC2 | > 10 µM | 0.17 µM | 0.001 µM | 0.0218 µM | > 0.1 µM | 
5 | Nc1c(Cl)cc(C(=O)OCCCN2CCCCC2)c2c1CCO2 | 0.00743 µM | 0.0045 µM | 1.18 µM |  |  | 
6 | O=C(N[C@H]1CN2CCC1CC2)c1cc(Cl)cc2c1OCC2 | > 1 µM | 0.28 µM | 0.001 µM | 0.038 µM | > 1 µM | 
7 | Nc1ccc(C(=O)N[C@@H]2CN3CCC2CC3)c2c1CCO2 | > 10 µM | > 1 µM | 0.001 µM | 0.0446 µM | > 0.1 µM | 
8 | CCCCN1CCC(COC(=O)c2cc(Cl)c(N)c3c2OCC3)CC1 | 0.00185 µM | 0.00013 µM | 0.25 µM |  |  | 
9 | CCCCN1CCC(CNC(=O)c2cc(Cl)c(N)c3c2OCC3)CC1 | 0.00449 µM | 0.0019 µM | 0.057 µM |  |  | 
10 | Nc1c(Cl)cc(C(=O)N[C@H]2CN3CCC2CC3)c2c1CCO2 | 0.195 µM | 0.115 µM | 0.001 µM | 0.0339 µM |  | 
11 | COc1cc(N)c(Cl)cc1C(=O)N[C@@H]1CN2CCC1CC2 | 0.0559 µM | 0.131 µM | 0.00011 µM |  |  | 
12 | CCCC[N+]12CCC(CC1)[C@H](NC(=O)c1cc(Cl)c(N)c3c1OCC3)C2 | 0.0085 µM | 0.0019 µM | 0.073 µM |  |  | 
13 | CCN(CC)CCNC(=O)c1cc(Cl)c(N)cc1OC [METOCLOPRAMIDE] |  |  | 0.49 µM |  |  | 
14 | Nc1c(Cl)cc(C(=O)N[C@@H]2CN3CCC2CC3)c2c1CCO2 | 0.0186 µM | 0.017 µM | 0.0001 µM | 0.0038 µM |  | 0.0186 µM
15 | Nc1c(Cl)cc(C(=O)OCCN2CCCCC2)c2c1CCO2 | 0.00202 µM | 0.00094 µM | 0.11 µM |  |  | 
16 | CCCC[N+]12CCC(CC1)[C@@H](NC(=O)c1cc(Cl)c(N)c3c1OCC3)C2 | 1.36 µM | 0.42 µM | 0.01 µM |  |  | 
17 | Nc1c(Cl)cc(C(=O)NCCCN2CCCCC2)c2c1CCO2 | 0.0193 µM | 0.0096 µM | > 10 µM |  |  | 
18 | Nc1ccc(C(=O)N[C@H]2CN3CCC2CC3)c2c1CCO2 | > 1 µM | > 1 µM | 0.02 µM |  | > 1 µM | 

From ChEMBL document CHEMBL1128962, “Serotoninergic 5-HT3 and 5-HT4 receptor activities of dihydrobenzofuran carboxylic acid derivatives” (Bioorg Med Chem Lett, 1996)
